Laboratory results taken from patent publication US20170315126A1, “METHOD FOR SCREENING COMPOUND SPECIFICALLY SUPPRESSING FORMATION OF CAVEOLAE OF CANCER CELLS, SCREENING KIT, VECTOR AND TRANSFORMANT TO BE USED IN KIT, AND METHOD FOR SELECTING PATIENT FOR WHOM MOLECULARLY TARGETED DRUG IS INDICATED” (NATIONAL UNIVERSITY CORPORATION NAGOYA INSTITUTE OF …, priority 2014, published 2017).
Read-outs that look alike come from different tables or passages of the source.

B2: human Cavin-1 (other, UniProt Q6NZI2 1-390, looked up)
chain: MEDPTLYIVERPLPGYPDAEAPEPSSAGAQAAEEPSGAGSEELIKSDQVNGVLVLSLLDKIIGAVDQIQLTQAQLEERQAEMEGAVQSIQGELSKLGKAHATTSNTVSKLLEKVRKVSVNVKTVRGSLERQAGQIKKLEVNEAELLRRRNFKVMIYQDEVKLPAKLSISKSLKESEALPEKEGEELGEGERPEEDAAALELSSDEAVEVEEVIEESRAERIKRSGLRRVDDFKKAFSKEKMEKTKVRTRENLEKTRLKTKENLEKTRHTLEKRMNKLGTRLVPAERREKLKTSRDKLRKSFTPDHVVYARSKTAVYKVPPFTFHVKKIREGQVEVLKATEMVEVGADDDEGGAERGEAGDLRRGSSPDVHALLEITEESDAVLVDKSDSD
notes: whole, on cells; Intracellular protein; endogenous in cell extracts or full length expressed from pCMVpuro-Cavin-1 in COS-7 cells; also called endogenous Cavin-1; pCMVpuro-Cavin-1-WT

Experiments:
[1] = test system: NCI-H1975 cells; settings: cited from earlier work
[2] = test system: PC-9 cells; settings: cited from earlier work
[3] = test system: PC-9 and NCI-H1975; assay: Cell proliferation by colorimetry (cell counting kit-8) after siRNA transfection; type: cell-based, human; settings: 120 hours after transfection
Description: Transfection of the siRNA (20 nM each) was conducted in accordance with the manufacturer's instruction manual using lipofectamine RNAiMAX (manufactured by Invitrogen). Cells were recovered 72 hours after transfection for Western blotting analysis. Cells were also recovered 120 hours after transfection for analysis by colorimetry to measure cell proliferation.
siControl or siROR1, siCavin-1, or siCAV1 was transfected against the PC-9 or NCI-H1975 cell line to investigate the effects of silencing of ROR1, Cavin-1, and CAV1 on cell proliferation. A reaction was conducted using a cell counting kit-8 (Dojindo) 120 hours after transfection, the absorbance was measured by a plate reader, and colorimetry was conducted. Furthermore, this experiment was conducted three separate times, and the average values were graphed.

[4] = test system: CAV1; assay: Western blotting of CAV1 expression after siRNA transfection in pulmonary adenocarcinoma cell lines; type: cell-based, human; settings: siRNA 20 nM
Description: Western blotting analysis and IP-WB analysis were conducted by the standard methods using an Immobilon-P filter (manufactured by Millipore Corp.) and an enhanced chemiluminescence system (manufactured by GE Healthcare Inc.). pCMVpuro-Cavin-1-WT was coexpressed with various ROR1 expression constructs such as the wild type (WT), TKΔ473-564 (TKΔ1), TK564-655 (TKΔ2), TKΔ655-746 (TKΔ3), TKΔ473-655 (TKΔ1+×2), TKΔ564-746 (TKΔ2+Δ3), and TKΔ473-746 (TKA1+Δ2+A3) to identify the binding site of ROR1 and Cavin-1. pCMVpuro-CAV1-WT was coexpressed with ROR1 expression constructs such as the wild type (WT), TKΔ473-564 (TKΔ1), TKΔ564-655 (TKΔ2), TKΔ655-746 (TKΔ3), ST1Δ748-782 (ΔST1), PΔ784-851 (ΔP), and ST2Δ853 to 876 (ΔST2) to identify the binding site of ROR1 and CAV1. For these, the cells were recovered 24 hours after transfection by Fugene6 (Promega) using COS-7 cells, and IP-WB analysis was conducted.
Transfection of the siRNA (20 nM each) was conducted in accordance with the manufacturer's instruction manual using lipofectamine RNAiMAX (manufactured by Invitrogen). […] Cells were also recovered 120 hours after transfection for analysis by colorimetry to measure cell proliferation.

[5] = target: T1, human ROR1 (receptor tyrosine kinase-like orphan receptor 1) (human, UniProt Q01973 30-937); assay: IP-WB of ROR1 constructs coexpressed with CAV1 in COS-7 cells
T1 construct: whole, on cells; also called endogenous ROR1; ROR1-WT
Description: For these, the cells were recovered 24 hours after transfection by Fugene6 (Promega) using COS-7 cells, and IP-WB analysis was conducted.

[6] = target: B2; assay: IP-WB of NCI-H1975 cell extract 24 hours after transfection of siROR1
[7] = target: T1, human ROR1 (receptor tyrosine …); assay: IP-WB of octyl glucoside extracts of NCI-H1975 and SK-LU-1 cells
[8] = target: T1, human ROR1 (receptor tyrosine …); assay: IP-WB of endogenous proteins in octyl glucoside cell extracts
[9] = NCI-H1975, 72 hours after transfection

T1 sequence (Q01973 30-937): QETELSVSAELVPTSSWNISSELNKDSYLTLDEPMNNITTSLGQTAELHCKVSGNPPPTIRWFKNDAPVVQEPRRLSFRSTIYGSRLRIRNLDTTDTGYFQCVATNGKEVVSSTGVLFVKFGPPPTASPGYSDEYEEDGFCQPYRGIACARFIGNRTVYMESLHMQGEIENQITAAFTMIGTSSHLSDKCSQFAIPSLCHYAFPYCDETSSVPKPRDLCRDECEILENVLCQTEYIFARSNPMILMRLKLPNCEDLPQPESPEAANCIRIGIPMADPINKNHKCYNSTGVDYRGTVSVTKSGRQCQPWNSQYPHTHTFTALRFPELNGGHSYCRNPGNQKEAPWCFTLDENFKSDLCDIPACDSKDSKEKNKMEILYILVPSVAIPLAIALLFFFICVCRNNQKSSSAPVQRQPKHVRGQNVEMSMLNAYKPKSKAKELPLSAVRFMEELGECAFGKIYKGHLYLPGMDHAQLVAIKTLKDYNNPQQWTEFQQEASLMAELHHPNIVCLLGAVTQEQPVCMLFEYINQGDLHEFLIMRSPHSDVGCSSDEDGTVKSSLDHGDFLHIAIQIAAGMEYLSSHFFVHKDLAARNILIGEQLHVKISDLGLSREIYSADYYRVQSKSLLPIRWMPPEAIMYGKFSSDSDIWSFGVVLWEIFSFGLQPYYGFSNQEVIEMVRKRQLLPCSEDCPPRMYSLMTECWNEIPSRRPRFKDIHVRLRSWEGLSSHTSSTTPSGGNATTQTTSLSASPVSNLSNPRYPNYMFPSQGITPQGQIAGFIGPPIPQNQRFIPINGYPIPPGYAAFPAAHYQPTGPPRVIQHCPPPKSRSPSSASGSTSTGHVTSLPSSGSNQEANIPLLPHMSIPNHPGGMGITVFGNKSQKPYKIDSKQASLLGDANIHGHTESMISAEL

For `CC#CC(=O)Nc1ccc2ncnc(Nc3cccc(Br)c3)c2c1` [CL-387, 785], which “sensitivity of cells to EGFR-TKI” value ([1]; NCI-H1975 in the presence of HGF) is on record?
The value was “resistance”.

Which “sensitivity of cells to EGFR-TKI” value ([2]; PC-9, no ligand) does the source give for `COc1cc2ncnc(Nc3ccc(F)c(Cl)c3)c2cc1OCCCN1CCOCC1` [gefitinib, Gefitinib] here?
The value was “sensitive”.

And the “sensitivity of cells to EGFR-TKI” value ([2]; PC-9 in the presence of HGF)?
Its value is “resistance”.

What about the “sensitivity of cells to EGFR-TKI” value ([1]; NCI-H1975 (EGFR T790M double mutation), no ligand) of the same molecule?
Its value is “resistance”.

For “siCavin-1#1: RNA oligomer for RNAi against human Cavin-1, 5′-CUCCAAGACCGCGGUCUACAA-3′ (SEQ ID No: 18) (listed as RNA, further chemistry not given here)”, which “cell proliferation (colorimetry)” value [3] is on record?
The value was “inhibit cell proliferation”.

For “siCavin-1#2: RNA oligomer for RNAi against human Cavin-1, 5′-CCCGCCGAGCGGCGCGAGAAA-3′ (SEQ ID No: 19) (listed as RNA, further chemistry not given here)”, which “cell proliferation (colorimetry)” value [3] is on record?
Its value is “inhibit cell proliferation”.

For “siIGF-IR#1: RNA oligomer for RNAi against human IGF-IR, 5′-GGAAUUGCAUGGUAGCCGAUU-3′ (SEQ ID No: 16) (listed as RNA, further chemistry not given here)”, which “CAV1 expression (Western blot)” value ([4]; NCI-H358) is on record?
The value was “downregulation of CAV1 was also found”.

What about the “CAV1 expression (Western blot)” value [4, 9] of the same molecule?
The value was “downregulate CAV1”.

What does the source list for “siIGF-IR#2: RNA oligomer for RNAi against human IGF-IR, 5′-CUGACUACAGGGAUCUCAUUU-3′ (SEQ ID No: 17) (listed as RNA, further chemistry not given here)”?
CAV1 expression (Western blot) ([4]; NCI-H358): downregulation of CAV1 was also found; CAV1 expression (Western blot) [4, 9]: downregulate CAV1

B1: human Caveolin 1 (other, UniProt Q03135 2-178, looked up)
chain: SGGKYVDSEGHLYTVPIREQGNIYKPNNKAMADELSEKQVYDAHTKEIDLVNRDPKHLNDDVVKIDFEDVIAEPEGTHSFDGIWKASFTTFTVTKYWFYRLLSALFGIPMALIWGIYFAILSFLHIWAVVPCIKSFLIEIQCISRVYSIYVHTVCDPLFEAVGKIFSNVRINLQKEI
notes: whole, on cells; Endogenous in cell extracts or full length expressed from pCMVpuro-CAV1 in COS-7 cells; also called CAV1; endogenous CAV1
Does B1 bind [5]?
Result: binds

Does B1 bind [6]?
Result: binds

Does B2 bind [7]?
Result: binds

B3: Cavin-2 (other, human, UniProt O95810 2-425, looked up)
chain: GEDAAQAEKFQHPGSDMRQEKPSSPSPMPSSTPSPSLNLGNTEEAIRDNSQVNAVTVLTLLDKLVNMLDAVQENQHKMEQRQISLEGSVKGIQNDLTKLSKYQASTSNTVSKLLEKSRKVSAHTRAVKERMDRQCAQVKRLENNHAQLLRRNHFKVLIFQEENEIPASVFVKQPVSGAVEGKEELPDENKSLEETLHTVDLSSDDDLPHDEEALEDSAEEKVEESRAEKIKRSSLKKVDSLKKAFSRQNIEKKMNKLGTKIVSVERREKIKKSLTSNHQKISSGKSSPFKVSPLTFGRKKVREGESHAENETKSEDLPSSEQMPNDQEEESFAEGHSEASLASALVEGEIAEEAAEKATSRGSNSGMDSNIDLTIVEDEEEESVALEQAQKVRYEGSYALTSEEAERSDGDPVQPAVLQVHQTS
notes: whole, on cells; Detected with anti-Cavin-2 (Abcam) in IP-WB of cell extracts
Does B3 bind [8]?
Result: no binding
